{"source": "paper PMC9844952", "about": "(Molecular Imaging and Biology, 2023)", "key": {"PSMA": {"biological_target": "PSMA (Homo sapiens, UniProt Q04609)", "sequence (Q04609 whole entry)": "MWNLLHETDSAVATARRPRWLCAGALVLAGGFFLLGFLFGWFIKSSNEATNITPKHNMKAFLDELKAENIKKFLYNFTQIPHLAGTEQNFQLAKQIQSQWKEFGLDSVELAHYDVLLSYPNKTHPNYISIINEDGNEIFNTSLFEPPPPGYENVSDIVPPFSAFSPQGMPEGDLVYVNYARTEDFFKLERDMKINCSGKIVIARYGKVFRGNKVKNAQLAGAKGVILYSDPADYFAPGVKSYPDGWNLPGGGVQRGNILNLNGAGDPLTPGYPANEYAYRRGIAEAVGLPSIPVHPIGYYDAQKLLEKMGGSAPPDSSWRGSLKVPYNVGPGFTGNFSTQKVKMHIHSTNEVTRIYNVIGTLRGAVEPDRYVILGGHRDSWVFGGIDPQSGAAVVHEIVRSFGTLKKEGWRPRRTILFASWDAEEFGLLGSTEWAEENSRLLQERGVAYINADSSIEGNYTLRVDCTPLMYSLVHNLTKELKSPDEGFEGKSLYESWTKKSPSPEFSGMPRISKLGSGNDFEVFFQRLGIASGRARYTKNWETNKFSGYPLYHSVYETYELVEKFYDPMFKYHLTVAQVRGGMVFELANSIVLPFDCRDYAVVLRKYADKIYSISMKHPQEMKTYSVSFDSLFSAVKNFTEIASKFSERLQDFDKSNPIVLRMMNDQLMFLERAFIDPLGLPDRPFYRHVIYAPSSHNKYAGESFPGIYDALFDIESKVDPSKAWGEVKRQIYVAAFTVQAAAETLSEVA", "assay": "automated lesion detection on 68Ga PSMA PET", "type": "in vivo", "details": "17 PSMA-positive lesions"}, "[1]": {"biological_target": "norepinephrine transporter (NET) (Homo sapiens, UniProt P23975)", "sequence (P23975 whole entry)": "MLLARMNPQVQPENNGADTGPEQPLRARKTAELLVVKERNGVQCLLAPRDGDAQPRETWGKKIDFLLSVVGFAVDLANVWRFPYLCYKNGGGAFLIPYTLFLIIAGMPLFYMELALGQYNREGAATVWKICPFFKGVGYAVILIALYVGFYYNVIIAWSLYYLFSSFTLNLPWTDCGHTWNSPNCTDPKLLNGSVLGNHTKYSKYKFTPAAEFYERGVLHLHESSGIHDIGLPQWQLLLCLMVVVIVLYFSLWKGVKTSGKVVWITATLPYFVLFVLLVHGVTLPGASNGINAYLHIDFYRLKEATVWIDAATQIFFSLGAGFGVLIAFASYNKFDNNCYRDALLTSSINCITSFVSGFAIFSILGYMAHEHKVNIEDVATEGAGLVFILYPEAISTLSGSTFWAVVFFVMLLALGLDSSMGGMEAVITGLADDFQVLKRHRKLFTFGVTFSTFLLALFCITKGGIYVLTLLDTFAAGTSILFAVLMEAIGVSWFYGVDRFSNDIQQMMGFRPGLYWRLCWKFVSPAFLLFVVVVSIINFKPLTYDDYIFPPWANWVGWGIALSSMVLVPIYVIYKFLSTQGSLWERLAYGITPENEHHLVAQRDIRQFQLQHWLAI", "assay": "competitive 3H-NE uptake assay in SK-N-SH cells", "type": "cell-based", "details": "read-out: IC50 of 3H-NE uptake; 60 min at 37°C, with pyrogallol and pargyline"}, "human mGlu2 receptors": {"biological_target": "human mGlu2 receptors (Homo sapiens, UniProt Q14416)", "sequence (Q14416 19-872)": "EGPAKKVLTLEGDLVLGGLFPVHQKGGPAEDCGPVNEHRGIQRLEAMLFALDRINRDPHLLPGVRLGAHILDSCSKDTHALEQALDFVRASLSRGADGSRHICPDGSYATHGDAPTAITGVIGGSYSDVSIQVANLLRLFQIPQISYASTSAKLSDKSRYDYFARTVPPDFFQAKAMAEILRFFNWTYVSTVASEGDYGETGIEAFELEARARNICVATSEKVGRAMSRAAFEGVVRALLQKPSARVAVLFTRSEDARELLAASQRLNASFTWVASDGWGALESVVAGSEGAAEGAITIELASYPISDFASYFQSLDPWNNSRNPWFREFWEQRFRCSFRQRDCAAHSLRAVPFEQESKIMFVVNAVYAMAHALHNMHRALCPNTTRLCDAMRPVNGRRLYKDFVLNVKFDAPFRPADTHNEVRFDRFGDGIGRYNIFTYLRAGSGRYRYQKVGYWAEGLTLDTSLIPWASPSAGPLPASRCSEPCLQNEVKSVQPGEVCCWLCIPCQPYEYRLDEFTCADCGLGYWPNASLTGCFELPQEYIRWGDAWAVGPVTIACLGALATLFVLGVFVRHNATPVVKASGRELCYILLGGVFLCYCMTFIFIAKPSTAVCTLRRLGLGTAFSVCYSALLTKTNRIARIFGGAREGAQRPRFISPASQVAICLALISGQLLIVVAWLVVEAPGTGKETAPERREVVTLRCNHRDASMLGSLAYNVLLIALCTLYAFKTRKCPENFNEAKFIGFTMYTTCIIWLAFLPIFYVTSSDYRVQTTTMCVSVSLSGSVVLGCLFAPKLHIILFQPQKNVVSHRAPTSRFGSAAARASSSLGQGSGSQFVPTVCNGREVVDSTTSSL", "assay": "radioligand binding in transfected CHO-K1 cells", "details": "glutamate 10 μM"}, "mGluR2": {"test_system": "mGluR2", "assay": "[11C]mG2P001 PET/CT in monkeys", "type": "in vivo, Cynomolgus fascicularis"}, "NCI-H460 Fluc tumours [2]": {"test_system": "NCI-H460 Fluc tumours", "assay": "PET of NCI-H460 Fluc tumours on chick CAM", "type": "in vivo, chicken", "details": "for tumour uptake in CAM tumours: 60 min p.i."}, "NCI-H460 Fluc tumours [3]": {"test_system": "NCI-H460 Fluc tumours", "type": "in vivo, mice", "details": "60 min p.i."}, "S. aureus": {"test_system": "S. aureus", "assay": "in vitro binding to S. aureus"}, "[4]": {"details": "cited from earlier work"}, "[5]": {"assay": "doxorubicin-induced chronic cardiotoxicity model", "type": "in vivo, C57BL/6J mice", "details": "8x3 mg/kg ip over 2 weeks"}, "PDGFR-β": {"test_system": "PDGFR-β", "type": "in vivo, mouse", "details": "imatinib for 3 weeks"}, "Escherichia coli 25922": {"test_system": "Escherichia coli 25922", "assay": "in vitro tracer uptake, Gram-negative control"}, "[6]": {"assay": "blood half-life and biodistribution of [99mTc]-DTPA-Collagen"}, "[7]": {"assay": "LogP of [99mTc]-DTPA-Collagen"}, "[8]": {"assay": "in vitro stability of [99mTc]-DTPA-Collagen", "details": "50h post-incubation, Radio-TLC"}, "Gram-positive bacteria": {"test_system": "Gram-positive bacteria", "assay": "in vitro tracer uptake, Gram-positive bacteria"}, "Candida albicans 14053": {"test_system": "Candida albicans 14053", "assay": "in vitro tracer uptake, yeast control"}}, "data": [{"compound": "O=C([O-])CN(CCN(CC(=O)[O-])Cc1cc(CCC(=O)NCCCCCC(=O)NCCCC[C@H](NC(=O)N[C@@H](CCC(=O)O)C(=O)O)C(=O)O)ccc1[O-])Cc1cc(CCC(=O)O)ccc1[O-].[68Ga+3].[OH3+]", "note": "[68Ga PSMA]", "values": [{"measurement": "diagnostic sensitivity of automated lesion detection", "setting": "PSMA", "value": 100, "unit": "%"}]}, {"compound": "N=C(N)NCc1cccc(I)c1", "note": "[MIBG, meta-iodobenzylguanidine]", "values": [{"measurement": "IC50", "setting": "[1]", "value": "1750 ± 470", "unit": "nM"}]}, {"compound": "Cn1c(CN2CCC(c3ccc(C(F)(F)F)cc3O[11CH3])CC2)nc2ncccc21", "note": "[[11C]mG2P001, 2-((4-(2-[^11C]methoxy-4-(trifluoromethyl)phenyl)piperidin-1-yl)methyl)-1-methyl-1H-imidazo[4,5-b]pyridine]", "values": [{"measurement": "maximum enhancement of specific binding vs control", "setting": "human mGlu2 receptors", "value": 2, "unit": "fold"}, {"measurement": "SUVmax in brain", "setting": "mGluR2; at 15 min", "value": "> 3"}, {"measurement": "enhancement of accumulation (Logan VT)", "setting": "mGluR2; representative study, pretreatment with 0.6 mg/kg mG2P001 iv", "value": 33, "unit": "%"}]}, {"compound": "O=C[C@H]([18F])[C@@H](O)[C@H](O)[C@H](O)CO", "note": "[[18F]FDG, 18-fluorodeoxyglucose]", "values": [{"measurement": "tumour uptake in CAM tumours", "setting": "NCI-H460 Fluc tumours [2]", "value": "10.0 ± 2.1", "unit": "%ID/g"}, {"measurement": "tumour-to-albumin ratio", "setting": "NCI-H460 Fluc tumours [2]; i.v. ~3 MBq", "value": 14.7}, {"measurement": "tumour uptake in mice", "setting": "NCI-H460 Fluc tumours [3]", "value": "6.0 ± 1.4", "unit": "%ID/g"}, {"measurement": "binding to S. aureus", "setting": "S. aureus", "value": "21±1", "unit": "%"}]}, {"compound": "N[C@@H](C[C@H](CCC[18F])C(=O)O)C(=O)O", "note": "[[18F]FSPG]", "values": [{"measurement": "tumour uptake in CAM tumours", "setting": "NCI-H460 Fluc tumours [2]", "value": "14.0 ± 5.5", "unit": "%ID/g"}, {"measurement": "stable in human plasma", "setting": "[4]", "value": "up to 4 hours"}]}, {"compound": "COc1cccc2c1C(=O)c1c(O)c3c(c(O)c1C2=O)C[C@@](O)(C(=O)CO)C[C@@H]3O[C@H]1C[C@H](N)[C@H](O)[C@H](C)O1", "note": "[doxorubicin]", "values": [{"measurement": "overall mortality rate", "setting": "[5]", "value": "< 20", "unit": "%"}]}, {"compound": "Cc1ccc(NC(=O)c2ccc(CN3CCN(C)CC3)cc2)cc1Nc1nccc(-c2cccnc2)n1", "note": "[imatinib]", "values": [{"measurement": "accumulation of Cy7-BiPPB in mutant kidneys under treatment", "setting": "PDGFR-β", "value": "decreased"}]}, {"compound": "[99mTc]-DTPA-Collagen: Rat Tail Collagen I conjugated to DTPA and labeled with 99mTc", "values": [{"measurement": "in vitro uptake", "setting": "Escherichia coli 25922", "value": "9±2", "unit": "%"}, {"measurement": "blood circulation half-life", "setting": "[6]; blood extraction", "value": "19 ± 2", "unit": "min"}, {"measurement": "liver uptake, ex vivo", "setting": "[6]; rat, in vivo", "value": "6.1±2.8", "unit": "%ID/g"}, {"measurement": "spleen uptake, ex vivo", "setting": "[6]; rat, in vivo", "value": "2.1±0.2", "unit": "%ID/g"}, {"measurement": "LogP", "setting": "[7]", "value": "-3.69±0.58"}, {"measurement": "stability", "setting": "[8]", "value": "higher than 90%"}, {"measurement": "in vitro uptake", "setting": "Gram-positive bacteria", "value": "63±7", "unit": "%"}, {"measurement": "binding to S. aureus", "setting": "S. aureus", "value": "66±3", "unit": "%"}, {"measurement": "in vitro uptake", "setting": "Candida albicans 14053", "value": "12±3", "unit": "%"}]}]}
